From the supplement of paper PMC7394473

Assays:
Conditions in all cases: 72 h
U2OS [1] = assay: GR50 (concentration giving GR = 0.5)
Experimental: (§1)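 U2OS cells treated with full dose titrations of drug; live and dead cells counted by STACK microscopy (mKate2 nuclei, SYTOX Green) at 72 h, biological triplicates. GR and FV dose responses were fitted with 4-parameter logistic models (GR lower bound -1). GRADE (0-100) is the rescaled angle of a linear fit of FV versus GR at doses with GR >= 0, giving the percentage of the response due to cell death.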

U2OS [2] = assay: fractional viability (live cells / total cells); higher = less cell death
Experimental: (§2)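 U2OS::Nuc-mKate2 cells seeded in 96-well plates and treated with eight- to ten-point half-log or log dilutions of drug in the presence of 50 nM SYTOX Green. Live (mKate2+) and dead (SYTOX+) cells were counted by IncuCyte STACK live-cell microscopy at 72 h; biological triplicates. GR is the normalised growth-rate inhibition value (Hafner 2016; 1 = untreated growth, <0 = population shrinking). FV is live/(live+dead) cells, not normalised.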

U2OS [3] = assay: drug GRADE (percent of response due to cell death) (% (0-100)); higher = more death-driven response
Experimental: as §1

U2OS [4] = assay: GRmin (fitted minimal GR value at highest effect) (GR value (dimensionless)); higher = less efficacious
Experimental: as §1

U2OS [5] = assay: normalized growth rate inhibition value (GR) relative to untreated cells (GR value (dimensionless, 1 = untreated growth)); higher = less growth inhibition
Experimental: as §2

Structure (SMILES) | GR50 (U2OS [1]) [µM] | fractional viability (U2OS [2]; 0.01 µM) | fractional viability (U2OS [2]; 0.0316 µM) | fractional viability (U2OS [2]; 0.1 µM) | fractional viability (U2OS [2]; 0.316 µM) | fractional viability (U2OS [2]; 1 µM) | fractional viability (U2OS [2]; 3.16 µM) | fractional viability (U2OS [2]; 10 µM) | fractional viability (U2OS [2]; 31.6 µM) | drug GRADE (U2OS [3]) | GRmin (U2OS [4]) | normalized growth rate inhibition value (U2OS [5]; 0.01 µM) | normalized growth rate inhibition value (U2OS [5]; 0.0316 µM) | normalized growth rate inhibition value (U2OS [5]; 0.1 µM) | normalized growth rate inhibition value (U2OS [5]; 0.316 µM) | normalized growth rate inhibition value (U2OS [5]; 1 µM) | normalized growth rate inhibition value (U2OS [5]; 3.16 µM) | normalized growth rate inhibition value (U2OS [5]; 10 µM) | normalized growth rate inhibition value (U2OS [5]; 31.6 µM) | fractional viability (U2OS [2]; 0.00100578 µM) | fractional viability (U2OS [2]; 0.00317827 µM) | fractional viability (U2OS [2]; 0.0100433 µM) | fractional viability (U2OS [2]; 0.0317369 µM) | fractional viability (U2OS [2]; 0.100289 µM) | fractional viability (U2OS [2]; 0.316912 µM) | fractional viability (U2OS [2]; 1.00144 µM) | fractional viability (U2OS [2]; 3.16456 µM) | normalized growth rate inhibition value (U2OS [5]; 0.00100578 µM) | normalized growth rate inhibition value (U2OS [5]; 0.00317827 µM) | normalized growth rate inhibition value (U2OS [5]; 0.0100433 µM) | normalized growth rate inhibition value (U2OS [5]; 0.0317369 µM) | normalized growth rate inhibition value (U2OS [5]; 0.100289 µM) | normalized growth rate inhibition value (U2OS [5]; 0.316912 µM) | normalized growth rate inhibition value (U2OS [5]; 1.00144 µM) | normalized growth rate inhibition value (U2OS [5]; 3.16456 µM)
Cc1cc2c(C(=O)NC[C@H](C)c3ccccc3)c(O)c(O)cc2c(O)c1-c1c(C)cc2c(C(=O)NC[C@H](C)c3ccccc3)c(O)c(O)cc2c1O [Sabutoclax] | 3.32 | 0.979 | 0.983 | 0.982 | 0.975 | 0.982 | 0.936 | 0.878 | 0.681 | 27.4 | -0.234 | 0.995 | 0.971 | 1.12 | 0.844 | 0.77 | 0.533 | 0.175 | -0.0541 |  |  |  |  |  |  |  |  |  |  |  |  |  |  |  | 
O=C(c1cc(Cc2n[nH]c(=O)c3ccccc23)ccc1F)N1CCN(C(=O)C2CC2)CC1 [Olaparib] |  |  |  |  |  |  |  | 0.96 |  | 6.58 |  |  |  |  |  |  |  | 0.511 |  | 0.992 | 0.988 | 0.989 | 0.992 | 0.99 | 0.989 | 0.987 | 0.982 | 1.03 | 0.94 | 1.03 | 1.02 | 0.964 | 0.956 | 0.922 | 0.85
CN1CCN(CCOc2cc(OC3CCOCC3)c3c(Nc4c(Cl)ccc5c4OCO5)ncnc3c2)CC1 [Saracatinib] | 2.59 |  |  |  |  |  |  | 0.833 |  | 28.7 | -0.134 |  |  |  |  |  |  | 0.205 |  | 0.989 | 0.989 | 0.987 | 0.986 | 0.98 | 0.965 | 0.929 | 0.915 | 1.02 | 1.04 | 1 | 0.977 | 0.978 | 0.823 | 0.608 | 0.528
CS(=O)(=O)N1CCN(Cc2cc3nc(-c4cccc5[nH]ncc45)nc(N4CCOCC4)c3s2)CC1 [Pictilisib] | 1.48 |  |  |  |  |  |  | 0.854 |  | 30.9 | 0.374 |  |  |  |  |  |  | 0.455 |  | 0.988 | 0.989 | 0.985 | 0.985 | 0.975 | 0.96 | 0.936 | 0.844 | 1.02 | 0.948 | 0.953 | 0.837 | 0.872 | 0.842 | 0.628 | 0.306
COc1cc([C@@H]2c3cc4c(cc3[C@@H](O[C@@H]3O[C@@H]5CO[C@@H](C)O[C@H]5[C@H](O)[C@H]3O)[C@H]3COC(=O)[C@H]23)OCO4)cc(OC)c1O [Etoposide] | 0.0978 |  |  |  |  |  |  | 0.628 |  | 8.6 | -0.106 |  |  |  |  |  |  | -0.155 |  | 0.99 | 0.988 | 0.993 | 0.989 | 0.975 | 0.952 | 0.96 | 0.922 | 0.934 | 1.02 | 0.895 | 0.785 | 0.524 | 0.11 | -0.0401 | -0.0127
Cc1nc(Nc2ncc(C(=O)Nc3c(C)cccc3Cl)s2)cc(N2CCN(CCO)CC2)n1 [Dasatinib] | 1.68 |  |  |  |  |  |  | 0.635 |  | 26.7 |  |  |  |  |  |  |  | -0.105 |  | 0.99 | 0.988 | 0.979 | 0.974 | 0.976 | 0.97 | 0.963 | 0.913 | 0.806 | 0.867 | 0.998 | 0.833 | 0.762 | 0.799 | 0.605 | 0.35
CCC(=O)N1CCN(c2ccc(-n3c(=O)ccc4cnc5ccc(-c6cnc7ccccc7c6)cc5c43)cc2C(F)(F)F)CC1 [Torin 1] | 0.473 | 0.977 | 0.976 | 0.966 | 0.954 | 0.937 | 0.917 | 0.895 | 0.792 | 21.4 | 0.106 | 1.02 | 0.896 | 0.749 | 0.525 | 0.404 | 0.275 | 0.147 | 0.114 |  |  |  |  |  |  |  |  |  |  |  |  |  |  |  | 
C#Cc1cccc(Nc2ncnc3cc(OCCOC)c(OCCOC)cc23)c1 [Erlotinib] |  | 0.973 | 0.976 | 0.977 | 0.967 | 0.96 | 0.96 | 0.913 | 0.697 | 62.1 | 0.542 | 0.935 | 0.993 | 1.03 | 0.986 | 1.06 | 0.928 | 0.636 | 0.545 |  |  |  |  |  |  |  |  |  |  |  |  |  |  |  | 
C[C@H]1[C@H](OC(=O)CCC(=O)O)O[C@@H]2O[C@@]3(C)CC[C@H]4[C@H](C)CC[C@@H]1[C@@]24OO3 [Artesunate] | 14.7 | 0.98 | 0.974 | 0.976 | 0.972 | 0.977 | 0.971 | 0.941 | 0.779 | 35.4 |  | 1.02 | 0.827 | 0.944 | 0.928 | 0.89 | 0.814 | 0.63 | 0.178 |  |  |  |  |  |  |  |  |  |  |  |  |  |  |  | 
